Tests used:
Assay in all cases: KINOMEscan kinase binding assay
[1] = target: T1, 384 kinases from the human genome (Homo sapiens, UniProt P22455); details: kinase FGFR4 (Entrez FGFR4)
T1 construct: purchased Eurofin/DiscoverX
Description: (§1) We reasoned that because internalizing AT1R and its targeting to intracellular compartments can support continued MAPK signaling, and since 21 inhibits receptor internalization, it should also impede to some extent ERK1/2 activation. […] Receptor-mediated ERK1/2 signaling can involve upstream kinases such as PKC, BRAF, and MEK1[35],[36]. […] To exclude other kinases potentially involved in ERK1/2 and Akt activation as targets of 21, we ran a kinase binding assay (KINOMEscan™) on 384 kinases from the human genome. Remarkably, a very high selectivity score S(10) of 0.008 was found (Supplementary Data 3).
(§2) The chemical library used for initial screening was from Chembridge DiverSet™ (60,000 compounds), Maybridge HitFinder™ (16,000 compounds), Maybridge (selected, 16,000 compounds), SPECS (selected, 16000 compounds), Microsource Discovery Spectrum (2000 compounds), Biomol (natural products, 500 compounds), Prestwick (commercialized products, 1120 compounds), SIGMA LopacTM (1280 compounds) and internal collection (synthesized at Université de Montréal-IRIC, ~4000 compounds). Compounds were all assigned an Université de Montréal number (UM) for internal use. Screen was performed at IRIC HTS facility. KINOMEscan™ profiling was serviced by Eurofin/DiscoverX (San Diego, USA).
(§3) Description of Additional Supplementary Files […]
(§4) File Name: Supplementary Data 3
(§5) Description: KINOMEscan results. Compound 21’s effect was tested on 384 kinases. Data represent kinases binding to their ligands in presence of 10 µM of 21, as compared to DMSO (100%). Results are from one experiment and represent the average of duplicates. Three kinases (FLT3, KIT, and PDGFRB) out of 384 were more than 90% affected (selectivity score S(10) of 0.008). […]

[2] = target: T2, 384 kinases from the human genome (Homo sapiens, UniProt O76039); details: kinase CDKL5 (Entrez CDKL5)
T2 construct: purchased Eurofin/DiscoverX
Description: as §1, §2, §3, §4, §5

[3] = target: T3, 384 kinases from the human genome (Homo sapiens, UniProt O75914); details: kinase PAK3 (Entrez PAK3)
T3 construct: purchased Eurofin/DiscoverX
Description: as §1, §2, §3, §4, §5

[4] = target: T4, 384 kinases from the human genome (Homo sapiens, UniProt Q9BYT3); details: kinase STK33 (Entrez STK33)
T4 construct: purchased Eurofin/DiscoverX
Description: as §1, §2, §3, §4, §5

[5] = target: T5, 384 kinases from the human genome (Homo sapiens, UniProt Q99755); details: kinase PIP5K1A (Entrez PIP5K1A)
T5 construct: purchased Eurofin/DiscoverX
Description: as §1, §2, §3, §4, §5

[6] = target: T6, 384 kinases from the human genome (Homo sapiens, UniProt P00533)
T6 construct: purchased Eurofin/DiscoverX
Description: as §1, §2, §3, §4, §5

[7] = target: T7, 384 kinases from the human genome (Homo sapiens, UniProt P49674); details: kinase CSNK1E (Entrez CSNK1E)
T7 construct: purchased Eurofin/DiscoverX
Description: as §1, §2, §3, §4, §5

[8] = target: T8, 384 kinases from the human genome (Homo sapiens, UniProt Q9HCP0); details: kinase CSNK1G1 (Entrez CSNK1G1)
T8 construct: purchased Eurofin/DiscoverX
Description: as §1, §2, §3, §4, §5

[9] = target: T9, 384 kinases from the human genome (Homo sapiens, UniProt Q9UPZ9); details: kinase ICK (Entrez ICK)
T9 construct: purchased Eurofin/DiscoverX
Description: as §1, §2, §3, §4, §5

[10] = target: T10, 384 kinases from the human genome (Homo sapiens, UniProt Q9NSY1); details: kinase BIKE (Entrez BMP2K)
T10 construct: purchased Eurofin/DiscoverX
Description: as §1, §2, §3, §4, §5

[11] = target: T11, 384 kinases from the human genome (Homo sapiens, UniProt P48736); details: kinase PIK3CG (Entrez PIK3CG)
T11 construct: purchased Eurofin/DiscoverX
Description: as §1, §2, §3, §4, §5

[12] = target: T12, 384 kinases from the human genome (Homo sapiens, UniProt Q13131); details: kinase AMPK-alpha1 (Entrez PRKAA1)
T12 construct: purchased Eurofin/DiscoverX
Description: as §1, §2, §3, §4, §5

[13] = target: T13, 384 kinases from the human genome (Homo sapiens, UniProt O15530); details: kinase PDPK1 (Entrez PDPK1)
T13 construct: purchased Eurofin/DiscoverX
Description: as §1, §2, §3, §4, §5

[14] = target: T14, 384 kinases from the human genome (Homo sapiens, UniProt P31751); details: kinase AKT2 (Entrez AKT2)
T14 construct: purchased Eurofin/DiscoverX
Description: as §1, §2, §3, §4, §5

[15] = target: T15, 384 kinases from the human genome (Homo sapiens, UniProt Q13163); details: kinase MEK5 (Entrez MAP2K5)
T15 construct: purchased Eurofin/DiscoverX
Description: as §1, §2, §3, §4, §5

[16] = target: T16, 384 kinases from the human genome (Homo sapiens, UniProt Q13546); details: kinase RIPK1 (Entrez RIPK1)
T16 construct: purchased Eurofin/DiscoverX
Description: as §1, §2, §3, §4, §5

[17] = target: T17, 384 kinases from the human genome (Homo sapiens, UniProt Q15759); details: kinase p38-beta (Entrez MAPK11)
T17 construct: purchased Eurofin/DiscoverX
Description: as §1, §2, §3, §4, §5

[18] = target: T18, 384 kinases from the human genome (Homo sapiens, UniProt Q13555); details: kinase CAMK2G (Entrez CAMK2G)
T18 construct: purchased Eurofin/DiscoverX
Description: as §1, §2, §3, §4, §5

[19] = target: T19, 384 kinases from the human genome (Homo sapiens, UniProt P57078); details: kinase RIPK4 (Entrez RIPK4)
T19 construct: purchased Eurofin/DiscoverX
Description: as §1, §2, §3, §4, §5

[20] = target: T20, 384 kinases from the human genome (Homo sapiens, UniProt Q92918); details: kinase HPK1 (Entrez MAP4K1)
T20 construct: purchased Eurofin/DiscoverX
Description: as §1, §2, §3, §4, §5

[21] = target: T21, 384 kinases from the human genome (Homo sapiens, UniProt Q00537); details: kinase PCTK2 (Entrez CDK17)
T21 construct: purchased Eurofin/DiscoverX
Description: as §1, §2, §3, §4, §5

[22] = target: T22, 384 kinases from the human genome (Homo sapiens, UniProt P22694); details: kinase PKAC-beta (Entrez PRKACB)
T22 construct: purchased Eurofin/DiscoverX
Description: as §1, §2, §3, §4, §5

[23] = target: T23, 384 kinases from the human genome (Homo sapiens, UniProt P29323); details: kinase EPHB2 (Entrez EPHB2)
T23 construct: purchased Eurofin/DiscoverX
Description: as §1, §2, §3, §4, §5

[24] = target: T24, 384 kinases from the human genome (Homo sapiens, UniProt P68400); details: kinase CSNK2A1 (Entrez CSNK2A1)
T24 construct: purchased Eurofin/DiscoverX
Description: as §1, §2, §3, §4, §5

[25] = target: T25, 384 kinases from the human genome (Homo sapiens, UniProt P31152); details: kinase ERK4 (Entrez MAPK4)
T25 construct: purchased Eurofin/DiscoverX
Description: as §1, §2, §3, §4, §5

[26] = target: T26, 384 kinases from the human genome (Homo sapiens, UniProt Q9Y616); details: kinase IRAK3 (Entrez IRAK3)
T26 construct: purchased Eurofin/DiscoverX
Description: as §1, §2, §3, §4, §5

T6 sequence (P00533 25-1210): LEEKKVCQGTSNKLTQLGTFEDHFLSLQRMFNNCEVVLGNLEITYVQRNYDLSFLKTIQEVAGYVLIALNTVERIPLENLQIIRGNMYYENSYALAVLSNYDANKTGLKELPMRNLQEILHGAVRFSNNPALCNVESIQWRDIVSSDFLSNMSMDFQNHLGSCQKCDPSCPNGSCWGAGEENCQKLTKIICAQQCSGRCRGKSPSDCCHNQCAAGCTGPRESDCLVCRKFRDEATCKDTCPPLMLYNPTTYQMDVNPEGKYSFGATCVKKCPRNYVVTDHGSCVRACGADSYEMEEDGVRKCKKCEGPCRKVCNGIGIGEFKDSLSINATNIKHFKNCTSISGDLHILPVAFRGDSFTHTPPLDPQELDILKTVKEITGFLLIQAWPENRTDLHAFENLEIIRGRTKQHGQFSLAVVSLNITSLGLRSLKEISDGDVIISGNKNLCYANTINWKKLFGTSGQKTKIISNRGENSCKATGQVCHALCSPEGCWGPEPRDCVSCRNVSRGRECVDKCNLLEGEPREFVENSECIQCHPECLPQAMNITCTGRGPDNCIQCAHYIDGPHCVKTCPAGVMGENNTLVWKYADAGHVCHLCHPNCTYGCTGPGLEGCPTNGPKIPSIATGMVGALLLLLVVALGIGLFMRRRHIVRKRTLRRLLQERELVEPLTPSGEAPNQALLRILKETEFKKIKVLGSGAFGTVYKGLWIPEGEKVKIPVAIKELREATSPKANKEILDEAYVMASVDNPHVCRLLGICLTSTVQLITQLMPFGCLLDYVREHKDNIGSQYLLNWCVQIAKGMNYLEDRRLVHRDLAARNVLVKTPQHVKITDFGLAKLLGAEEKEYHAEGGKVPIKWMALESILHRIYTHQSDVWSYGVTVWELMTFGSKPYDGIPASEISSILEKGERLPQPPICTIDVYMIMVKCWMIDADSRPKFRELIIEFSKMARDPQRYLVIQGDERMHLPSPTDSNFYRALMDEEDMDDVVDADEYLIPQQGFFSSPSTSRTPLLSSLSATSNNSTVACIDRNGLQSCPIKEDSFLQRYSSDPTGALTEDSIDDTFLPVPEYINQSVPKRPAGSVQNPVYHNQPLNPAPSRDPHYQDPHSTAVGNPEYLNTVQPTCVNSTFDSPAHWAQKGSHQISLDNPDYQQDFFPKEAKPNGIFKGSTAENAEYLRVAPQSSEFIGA
T24 sequence (P68400 whole entry): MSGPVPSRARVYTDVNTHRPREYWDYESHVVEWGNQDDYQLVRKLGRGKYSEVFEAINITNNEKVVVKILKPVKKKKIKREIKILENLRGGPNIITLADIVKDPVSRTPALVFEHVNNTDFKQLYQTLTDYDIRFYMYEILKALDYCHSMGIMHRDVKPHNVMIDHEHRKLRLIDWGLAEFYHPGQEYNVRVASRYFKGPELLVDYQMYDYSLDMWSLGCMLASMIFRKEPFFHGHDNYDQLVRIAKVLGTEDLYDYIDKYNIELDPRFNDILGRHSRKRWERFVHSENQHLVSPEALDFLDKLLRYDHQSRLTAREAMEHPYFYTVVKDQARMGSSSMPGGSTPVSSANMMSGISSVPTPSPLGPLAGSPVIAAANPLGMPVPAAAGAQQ
T19 sequence (P57078 whole entry): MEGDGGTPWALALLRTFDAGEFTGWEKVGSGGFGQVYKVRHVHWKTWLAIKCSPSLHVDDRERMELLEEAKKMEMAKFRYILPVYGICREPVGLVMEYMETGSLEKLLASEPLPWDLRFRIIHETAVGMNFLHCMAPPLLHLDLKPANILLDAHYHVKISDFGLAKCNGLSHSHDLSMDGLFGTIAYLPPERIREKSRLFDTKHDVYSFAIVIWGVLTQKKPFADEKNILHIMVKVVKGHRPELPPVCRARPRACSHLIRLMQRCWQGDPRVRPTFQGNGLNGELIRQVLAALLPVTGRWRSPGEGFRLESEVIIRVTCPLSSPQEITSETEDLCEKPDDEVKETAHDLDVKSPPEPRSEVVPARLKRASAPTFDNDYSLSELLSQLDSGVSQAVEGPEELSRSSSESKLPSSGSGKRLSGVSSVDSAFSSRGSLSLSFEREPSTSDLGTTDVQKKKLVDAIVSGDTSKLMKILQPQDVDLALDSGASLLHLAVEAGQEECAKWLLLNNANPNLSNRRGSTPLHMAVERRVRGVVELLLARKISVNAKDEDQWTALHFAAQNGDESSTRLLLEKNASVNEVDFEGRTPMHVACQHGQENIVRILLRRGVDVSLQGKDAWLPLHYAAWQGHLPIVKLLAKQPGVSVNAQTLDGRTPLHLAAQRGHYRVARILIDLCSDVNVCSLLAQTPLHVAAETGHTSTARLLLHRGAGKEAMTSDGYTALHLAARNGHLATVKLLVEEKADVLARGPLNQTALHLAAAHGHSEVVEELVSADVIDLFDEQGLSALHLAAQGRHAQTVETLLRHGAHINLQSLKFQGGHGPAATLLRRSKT
T13 sequence (O15530 whole entry): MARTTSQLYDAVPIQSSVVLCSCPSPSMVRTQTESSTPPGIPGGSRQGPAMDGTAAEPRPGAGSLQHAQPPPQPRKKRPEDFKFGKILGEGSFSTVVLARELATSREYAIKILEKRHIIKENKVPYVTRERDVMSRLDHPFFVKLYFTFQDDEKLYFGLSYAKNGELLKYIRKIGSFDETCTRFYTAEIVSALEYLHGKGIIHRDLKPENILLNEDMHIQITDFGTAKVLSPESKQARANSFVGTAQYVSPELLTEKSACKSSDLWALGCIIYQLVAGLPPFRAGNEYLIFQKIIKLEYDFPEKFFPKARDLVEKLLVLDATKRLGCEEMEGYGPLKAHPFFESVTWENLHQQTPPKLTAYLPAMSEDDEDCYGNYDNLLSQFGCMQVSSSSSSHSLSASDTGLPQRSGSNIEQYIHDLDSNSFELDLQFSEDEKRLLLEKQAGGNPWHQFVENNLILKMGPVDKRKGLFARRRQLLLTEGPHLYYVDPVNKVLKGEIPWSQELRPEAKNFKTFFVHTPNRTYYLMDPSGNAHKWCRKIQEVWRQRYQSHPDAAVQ
T16 sequence (Q13546 whole entry): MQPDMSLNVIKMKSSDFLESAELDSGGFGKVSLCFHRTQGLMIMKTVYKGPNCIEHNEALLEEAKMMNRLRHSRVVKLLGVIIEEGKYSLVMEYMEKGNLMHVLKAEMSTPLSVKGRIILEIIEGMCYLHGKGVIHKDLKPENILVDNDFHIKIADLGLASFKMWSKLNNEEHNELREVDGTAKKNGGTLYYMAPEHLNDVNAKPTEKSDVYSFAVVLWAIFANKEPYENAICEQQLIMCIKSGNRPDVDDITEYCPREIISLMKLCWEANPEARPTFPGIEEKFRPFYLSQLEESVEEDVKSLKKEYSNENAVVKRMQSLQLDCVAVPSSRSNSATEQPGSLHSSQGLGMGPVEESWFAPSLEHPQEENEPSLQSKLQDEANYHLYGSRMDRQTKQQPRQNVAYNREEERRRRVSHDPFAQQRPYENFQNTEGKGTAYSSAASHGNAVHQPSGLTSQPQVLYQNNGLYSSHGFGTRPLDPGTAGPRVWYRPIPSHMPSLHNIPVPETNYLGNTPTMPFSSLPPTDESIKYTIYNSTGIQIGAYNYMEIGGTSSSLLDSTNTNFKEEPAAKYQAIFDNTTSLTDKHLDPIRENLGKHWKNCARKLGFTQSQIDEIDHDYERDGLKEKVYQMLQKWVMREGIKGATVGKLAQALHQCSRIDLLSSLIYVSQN
T14 sequence (P31751 whole entry): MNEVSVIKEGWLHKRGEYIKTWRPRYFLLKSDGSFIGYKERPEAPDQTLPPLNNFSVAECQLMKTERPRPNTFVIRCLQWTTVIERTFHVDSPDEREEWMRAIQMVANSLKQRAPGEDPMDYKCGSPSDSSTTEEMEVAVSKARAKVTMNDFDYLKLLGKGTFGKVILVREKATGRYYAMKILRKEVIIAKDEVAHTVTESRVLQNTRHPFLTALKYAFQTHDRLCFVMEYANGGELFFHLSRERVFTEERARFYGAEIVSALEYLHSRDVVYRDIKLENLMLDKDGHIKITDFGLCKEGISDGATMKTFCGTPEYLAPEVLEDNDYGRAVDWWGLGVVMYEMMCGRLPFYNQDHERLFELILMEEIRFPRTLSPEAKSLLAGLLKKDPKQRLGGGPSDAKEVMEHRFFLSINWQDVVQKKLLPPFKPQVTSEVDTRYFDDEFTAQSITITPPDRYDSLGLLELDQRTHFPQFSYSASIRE
T7 sequence (P49674 whole entry): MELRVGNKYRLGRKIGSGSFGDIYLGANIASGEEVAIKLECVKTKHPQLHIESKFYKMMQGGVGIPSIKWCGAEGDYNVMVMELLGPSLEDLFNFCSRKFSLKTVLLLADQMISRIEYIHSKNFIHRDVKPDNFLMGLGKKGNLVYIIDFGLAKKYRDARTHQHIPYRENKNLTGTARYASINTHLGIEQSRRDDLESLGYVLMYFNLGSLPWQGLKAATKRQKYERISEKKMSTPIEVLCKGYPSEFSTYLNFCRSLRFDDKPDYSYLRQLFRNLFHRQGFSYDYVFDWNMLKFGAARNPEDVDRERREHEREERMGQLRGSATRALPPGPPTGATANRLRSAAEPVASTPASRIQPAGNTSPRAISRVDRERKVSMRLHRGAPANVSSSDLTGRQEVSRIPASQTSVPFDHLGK
T4 sequence (Q9BYT3 whole entry): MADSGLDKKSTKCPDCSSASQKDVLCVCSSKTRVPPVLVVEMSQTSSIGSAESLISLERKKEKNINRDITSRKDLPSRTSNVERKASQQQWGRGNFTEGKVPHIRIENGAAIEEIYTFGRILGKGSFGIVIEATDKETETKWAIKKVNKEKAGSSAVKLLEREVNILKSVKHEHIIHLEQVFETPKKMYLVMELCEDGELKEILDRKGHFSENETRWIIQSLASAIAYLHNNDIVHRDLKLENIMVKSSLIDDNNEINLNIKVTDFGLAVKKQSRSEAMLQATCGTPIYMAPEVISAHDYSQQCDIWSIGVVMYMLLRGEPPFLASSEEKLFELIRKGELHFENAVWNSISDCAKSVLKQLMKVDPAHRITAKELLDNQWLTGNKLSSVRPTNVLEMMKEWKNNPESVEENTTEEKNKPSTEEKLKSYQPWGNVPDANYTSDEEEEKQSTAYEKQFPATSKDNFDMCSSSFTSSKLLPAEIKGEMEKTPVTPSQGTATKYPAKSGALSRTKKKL

In the case of `CC(C)C(=O)N1CCN(c2ccc(NC(=O)c3cc4ccccc4o3)cc2Cl)CC1` [Compound 21], the “Percent Control” value [1] is reported as 91%, the “Percent Control” value [2] is reported as 89% and the “Percent Control” value [3] is reported as 92%. For the same compound, the “Percent Control” value [4] was 100%, the “Percent Control” value [5] was 100% and the “binding to EGFR” value ([6]; 10 µM of 21) was “failed to bind”. For the same compound, the “Percent Control” value ([6]; kinase EGFR (Entrez EGFR)) was 89%, the “Percent Control” value [7] was 100% and the “Percent Control” value [8] was 87%. For the same compound, the “Percent Control” value [9] was 81%, the “Percent Control” value [10] was 100% and the “Percent Control” value [11] was 100%. For the same compound, the “Percent Control” value [12] was 99%, the “Percent Control” value [13] was 97% and the “Percent Control” value [14] was 100%. The “Percent Control” value [15] was 72%, the “Percent Control” value [16] was 76% and the “Percent Control” value [17] was 80%. The “Percent Control” value [18] was 98%, the “Percent Control” value [19] was 87% and the “Percent Control” value [20] was 75%. For the same compound, the “Percent Control” value [21] was 99%, the “Percent Control” value [22] was 93% and the “Percent Control” value [23] was 94%. The “Percent Control” value [24] was 100%, the “Percent Control” value [25] was 100% and the “Percent Control” value [26] was 67%.

Source: publication PMC8333425, “Discovery of a dual Ras and ARF6 inhibitor from a GPCR endocytosis screen” (Nature Communications, 2021)
